Here are results for four compounds from patent publication US7235548B2, “Compounds and their use as positive AMPA receptor modulators” (NeuroSearch A/S, priority 1998, dated 2007).

This assay concerns AMPA receptors. In words: AMPA evoked single neuron spike activity in rat hippocampus (iontophoretic application of AMPA), in vivo. Conditions: for AMPA evoked spike activity: rat hippocampus. An excerpt:
Evaluation of the in vivo effects of positive AMPA modulators (PAMs) on the AMPA evoked spike activity in rat hippocampus. Hippocampal single neuron spike activity is strongly influenced by excitatory input, and iontophoretic application of AMPA induces spike activity in vivo in a dose-dependent manner ([…] et al. 1998). […] PAMs potentate AMPA receptor activation in vitro, and if this mechanism also operates in vivo, the i.v. injection of an PAM should enhance AMPA evoked spike activity. Thus, the aim of this study was to test the in vivo effect of a group of in vitro active PAMs. This have been done by studying their ability to enhances AMPA evoked spike activity after i.v. administration. Experiments were performed on male Wistar rats (M & B, Denmark) weighing 280-380 g, housed in two per cage with free access to food and water. […] Additional anaesthetic was given i.v. if the rat responded to a pinch of the back foot. The trachea was cannulated and the rats were placed in a stereotaxic frame and ventilated by a rodent ventilator (Ugo Basile, Comerio-Varese, Italy). Core body temperature was maintained at 37.5° C. by a DC heating pad. The left and dorsal part of the parietal bone was removed by craniotomy and the dura was withdrawn exposing the pia mater and underlying brain, covered with 0.9% NaCl. AMPA (Sigma, USA) was dissolved at 10 mM in 0.2 M NaCl. NMDA (Sigma, USA) was dissolved at 100 mM in 100 mM NaCl. Both solutions were adjusted to pH 7.5-8.0 with NaOH. COMPOUND 61 was dissolved in 200 mM CH3SO3^- Na^+ at a contration of 10 mM for iontophoretic application ([…]) and in isotonic glucose (278 mM) for i.v. administration. Cyclothiazide, COMPOUND 63, COMPOUND 56, COMPOUND 115 and COMPOUND 114 were all dissolved at in 5% chremophore solution at a concentration of 5 mg ml^-1. Evoked neuronal spike activity was analyzed on-line by a computer, saving single spikes and time of event. Neuronal spike activity (number of action potentials s^-1) was monitored on a pulse rate histogram together with indicators for AMPA, COMPOUND 61 and vehicle application. Extracellular recordings of single hippocampal neuron spikes were made with five-barrel glass microelectrodes (5B120F-6, World Precision Instruments Inc., Sarasota, Fla., USA) with a tip diameter of 10-12 μm. The individual barrels were filled with 5 M NaCl (recording), 400 mM NaCl (current balancing), 10 mM COMPOUND 61 in 200 mM CH3SO3^- Na^+ (pH 4.7), 200 mM CH3SO3^- Na^+ (pH 4.7, Vehicle), and the last barrel was filled with the AMPA. Experiments were performed on hippocampal neurons (A=5.5-6.5 mm, L=1.5-2.0 mm, H=2.0-3.0 mm, according to Paxinos & Watson, 1986). Neuronal spike activity was evoked by iontophoretic application of AMPA for periods of 10 to 15 s with 1.5 min intervals. Single neuron spike activity was amplified 5000 times with a bandwidth of 0.3 and 3 kHz (CyberAmp 320 with a Al 402 x50 smartprobe, Axon Instruments, California, USA). On-line and off-line analyses were performed by the Spike2 program with a 1401 plus interface (Cambridge Electronic Design Limited, England). The computer program also recorded mean arterial blood pressure and monitored and controlled iontophoretic application. AMPA was ejected into hippocampus in regular cycles of 100-105 s. […] Recording of neuronal spike activity was continued for at least 45 min after intravenous injection. The PAM reactivity was tested by microiontophoretic application of COMPOUND 61 (20 nA, FIG.).

Consider `Cc1cc2c(cc1S(=O)(=O)N1CCCCC1)S(=O)(=O)NC(C1CCCC1)N2` (centres unmarked) [Compound 114, 3-Cyclopentyl-6-methyl-7-piperidinosulfonyl-1,2,3,4-tetrahydro-1,2,4-benzothia-diazine-1,1-dioxide], for which, under “10 mg kg^−1 i.v.”, the “AMPA evoked spike activity” value was “enhanced”. For the same compound, the “increase of the AMPA responses” value (10 mg kg^−1 i.v., control level of the AMPA responses low, FIG. 15) is 10 fold. For the same compound, the “AMPA response after administration” value (10 mg kg^−1 i.v., larger control responses, from 124, FIG. 16) was 204 spikes response^−1. For the same compound, where the note is “10 mg kg^−1 i.v., larger control responses, FIG. 16”, the “enhancement of the AMPA responses” value is reported as “approximately doubled”. Further, the “AMPA response after administration, mean response” value (10 mg kg^−1 i.v., low control level, from 21, FIG. 15) is 209 spikes response^−1.

`CN1CCN(S(=O)(=O)c2ccc3c(c2)S(=O)(=O)NC(C2CCCCC2)N3)CC1` (centres unmarked) [Compound 61, 3-Cyclohexyl-7-(4′-methylpiperazino)sulfonyl-1,2,3,4-tetrahydro-1,2,4-benzothiadiazine-1,1-dioxide]: where the note is “10 mg kg^−1 i.v.”, the “onset of the enhancement after i.v. administration” value is reported as 20 min and the “AMPA evoked spike activity” value is “enhanced”. Besides, the “increase in AMPA evoked spike activity” value (10 mg kg^−1 i.v., FIG. 14) amounted to 3 fold. For the same compound, the “AMPA evoked spike activity” value (iontophoretic application of the compound (20 nA)) is given as “enhanced”.

Take `O=S1(=O)NC(C2CCCCC2)Nc2ccc(S(=O)(=O)N3CCOCC3)cc21` (centres unmarked) [Compound 63, 3-Cyclohexyl-7-morpholinosulfonyl-1,2,3,4-tetrahydro-1,2,4-benzothiadiazine-1,1-dioxide]: the “initial effect on the AMPA responses” value (10 mg kg^−1 i.v., before onset of enhancement) is reported as “initial inhibition”. Moreover, the “large AMPA responses, evoked by high intensity AMPA stimulation” value (10 mg kg^−1 i.v., high intensity AMPA (17 nA)) is “only marginal effect”. For the same compound, the “small AMPA responses, evoked by low intensity AMPA stimulation” value (10 mg kg^−1 i.v., low intensity AMPA (12 nA)) is recorded as “enhanced”.

As to `Cc1cc2c(cc1S(=O)(=O)N1CCOCC1)S(=O)(=O)NC(C1CCCCC1)N2` (centres unmarked) [Compound 115, 3-Cyclohexyl-6-methyl-7-morpholinosulfonyl-1,2,3,4-tetrahydro-1,2,4-benzothiadiazine-1,1-dioxide], where the note is “10 mg kg^−1 i.v.”, the “onset of the enhancement after i.v. administration” value came to 2 min and the “AMPA evoked spike activity” value is given as “enhancement”.
